Experiments:
[1] = tested on: impetiginous atopical eczema on the hands and feet; assay: case treatment of atopic eczema, topical; assay type: in vivo, human; conditions: same patient, before taurolidine treatment
Description: The patient was released with a prescription to apply Triclosan in a Dermatop-base cream upon need. The pustules were treated with methylrosaniline chloride solution. […] Further treatments included application of Dermatop-cream, Polyvidon-Iodine solution, crystal violet solution, and Nystatin-suspension. […] Treatment was then continued for another week at reduced frequency application such as once daily.

Staphylococcus aureus = conditions: cited from earlier work
[2] = tested on: acne, inflamed lesions in the skin; assay: topical treatment of acne; assay type: in vivo, human
skin sensitization = assay: Magnusson & Kligman-Test; assay type: in vivo

Row | Compound | condition under earlier therapy of atopical eczema [1] | minimal threshold of inhibitory concentration (Staphylococcus aureus) [mg/mL] | local irritations and/or allergies ([2]; 2% taurolidine gel or emulsion on skin of affected patient) | side effects such as flaking, stinging and itching ([2]; 2% taurolidine gel or emulsion, topical) | reduction of inflamed lesions in the skin ([2]; hydroxyethylcellulose gel (or W/O or O/W emulsion) with 2% taurolidine, several days after application) [%] | sensitization classification (skin sensitization)
1 | COCC1=C(C(=O)O)N2C(=O)[C@@H](NC(=O)/C(=N\OC)c3csc(N)n3)[C@H]2SC1 [Cefpodoxim] | improved somewhat |  |  |  |  | 
2 | O=S1(=O)CCN(CN2CCS(=O)(=O)NC2)CN1 [taurolidine, 4,4′-methylenebis-(1,2,4-thiadiazine-1,1-dioxide)] |  | 0.3 to 0.6 | no local irritations and/or allergies could be observed | No side effects | 50 | non-sensitizing agent
3 | C[C@]12C=CC(=O)C=C1CC[C@@H]1[C@@H]2[C@@H](O)C[C@@]2(C)[C@H]1CC[C@]2(O)C(=O)CO [Prednisolon] | the atopical eczema was not completely gone |  |  |  |  | 

Source: patent US20050008684A1, “Method of treatment for acne, rosacea and ulcers with taurolidine and/or taurultam in a pharmaceutical composition” (priority 2003, published 2005)
